# According to patent US8486447B2, “Pharmaceutical formulation” (Novartis AG, priority 2003, dated 2013):
# Test: HPLC analysis of thermal degradation of drug substance and melt-processed solid dispersions
# Assay type: physicochemical
# Conditions: for HPLC analysis (thermal degradation): Table 1
compound,measurement,setting,value
"CN(Cc1ccccc1)C(=O)[C@H](Cc1ccc2ccccc2c1)N(C)C(=O)[C@@H]1CCCN1c1nc(=O)c2ccccc2[nH]1 [TKA731, (S)-1-(4-Oxo-1,4-dihydro-quinazolin-2-yl)-pyrrolidine-2-carboxylic acid[(S)-1-(benzyl-methyl-carbamoyl)-2-naphthalen-2-yl-ethyl]-methyl-amide]",HPLC analysis (thermal degradation),"drug load 100%, PVPK-30 0%, amorphous TKA731",No degradation
same,HPLC analysis (thermal degradation),"solid dispersion, drug load 20%, PVPK-30 80%",No degradation
same,HPLC analysis (thermal degradation),"solid dispersion, drug load 30%, PVPK-30 70%",No degradation
same,HPLC analysis (thermal degradation),"solid dispersion, drug load 40%, PVPK-30 60%",No degradation
same,HPLC analysis (degradation),"Table 2, starting from amorphous drug, Tg 94.5 °C",No
same,HPLC analysis (degradation),"Table 2, starting from crystalline drug, melting point 175 °C",20%
same,HPLC analysis (degradation),"Table 3, amorphous drug load 20%, PVPK-30 70%, sorbitol 10%, processing temperature 170 °C",No
same,HPLC analysis (degradation),"Table 3, amorphous drug load 30%, PVPK-30 65%, sorbitol 5%, processing temperature 170 °C",No
same,HPLC analysis (degradation),"Table 3, amorphous drug load 40%, PVPK-30 60%, sorbitol 0%, processing temperature 170 °C",No
